According to patent US20100197765A1, “METHOD FOR PROMOTING THE EXPRESSION OF P53, AND P53 EXPRESSION PROMOTER FOR USE IN THE METHOD” (THE UNIVERSITY OF TOKUSHIMA, priority 2007, published 2010):

Experiments:
Type in all cases: cell-based, human
HepG2 cells = assay: apoptosis (Apoptotic evaluation 1) of siRNA-expressing HepG2 cells treated with 5-FU; settings: for basal apoptosis: HepG2, 0 μmol/L 5-FU; for proportion of apoptosis in response to 5-FU: HepG2, 5-FU 10, 30 μmol/L, 60 hours, concentration-dependent
Description: Objective cells were treated with various anticancer agents, and then incubated with trypsin/EDTA to prepare cell suspensions. The cell suspensions were centrifuged and supernatants thereof were removed. Thereafter, the cell suspensions each were immobilized and stained with a solution of formaldehyde of 3.7%, Nonidet P40 of 0.5%, and 10 μg/mL of Hoechst33258 (Invitrogen) in PBS. […] The counting was performed with respect to at least 300 cells in one measurement.
Each type of the recombinant vectors was transfected into HepG2 cells for 18 hours in the same manner as in the above-described item (1). Each type of the transfection cells was treated with an anticancer agent “5-FU” having a predetermined concentration (0, 10, 30 μmol/L) for 60 hours. Then, the apoptosis (%) of the treated cells was examined according to “Apoptosis evaluation 1”. FIG. 1B is a graph showing apoptosis (%) in each type of the cells treated with 5-FU having a predetermined concentration (means±SD, n=3).

bax mRNA and noxa mRNA = assay: bax and noxa mRNA by quantitative RT-PCR in siRNA-transfected HCT116 cells; settings: HCT116, 5-FU 80 μmol/L, 24 hours, vs control
Description: Whether or not the increase in the 5-FU-induced expression of p53 mRNA caused by the knockdown of vegf IresRNA by vegf siRNA induces expression of mRNA of a bax gene or a noxa gene, which are both p53 target genes, was examined. Cells obtained by transfecting the same control siRNA vectors, vegf siRNA #1 vectors, or vegf siRNA #2 vectors as in the above into parent cells HCT116 were treated for 24 hours in the presence of 80 μmol/L of 5-FU (+) or in the absence of 5-FU (−). Thereafter, expressions of bax mRNA and noxa mRNA were analyzed by quantitative RT-PCR (means±SD, n=4).

vegf IresRNA = vegf IresRNA by Northern blotting in siRNA-transfected HCT116 cells; settings: HCT116, 18 hours after transfection, vs control cells
Description: Whether or not vegf siRNA promotes the apoptosis sensitivity of cells was examined. In the same manner as in Example A1 except that HCT116 cells (parent cells, wild-type p53) were used instead of the HepG2 cells (wild-type p53), the vegf siRNA #1 vectors expressing siRNA #1, the vegf siRNA #2 vectors expressing siRNA #2, and the control siRNA vectors described above were respectively transfected into the HCT116 cells (parent cells, wild-type p53). Then, with regard to the cells after 18 hours from the transfection, the expression levels of vegf mRNA and gapdh mRNA were analyzed by quantitative RT-PCR (means±SD, n=4) and the expression levels of vegf IresRNA and gapdh mRNA were analyzed by Northern blotting. Also, with regard to HCT116 cells not transfected with the above-described recombinant vectors, the analyses were conducted in the same manner. The quantitative RT-PCR was conducted in the same manner as in Example B1, except that a primer set for vegf mRNA was used.

vegf mRNA = vegf mRNA expression by Northern blotting in HepG2 cells expressing vegf siRNA; settings: HepG2, 18 hours after vector transfection, vs untransfected and control siRNA cells
Description: (§1) Total RNAs were extracted according to a guanidine thiocyanate method. Labeled cDNAs were produced using the following antisense primers, a klenow fragment (New England BioLabs, Inc., Inc.), and [α^−32P]dCTP, with the following cDNAs being templates. Thus obtained labeled cDNAs were used as probes for the Northern blotting.
The vegf siRNA #1 vectors, the vegf siRNA #2 vectors, and the control siRNA vectors were transfected into HepG2 cells (wild-type p53). These cells were cultured for 18 hours, and the expression level of vegf mRNA was analyzed by the Northern blotting. Also, with respect to the HepG2 cells not transfected with the vectors, the analysis was performed in the same manner. At the time of analysis, gapdh mRNA in each type of the cells was monitored as a loading control (hereinafter, the same applies). The cells were cultured using DMEM medium containing 10% fetal bovine serum and 100 μg/ml (100 units/ml) of streptomycin under the condition of 37° C. and 5% CO2 (hereinafter, the same applies).

p53 = p53 mRNA (Northern) and p53 protein (Western) expression in siRNA-expressing HepG2 cells
Description: Western immunoblotting was performed according to Huez, I. et al. Mol. Endocrinol. 15 2197-2210 (2001) or Masuda, K., et al. PLoS Med. 5, e94 (2008). As a primary antibody, anti p53 antibody (“DO-1” or “FL-393”, Santa Cruz Biotechnology, Inc.), anti […] (“clone AC-15”, Sigma Chemical Co.), anti HA (“Y-11”, Santa Cruz Biotechnology Inc.), and anti L-VEGF (polyclonal anti L-VEGF antibody) mentioned in the Huez, I. et al. (2001) were used.
as §1
Each type of the vectors was transfected into HepG2 cells for 18 hours in the same manner as in the above-described item (1). Then, the cells were treated in the presence of 5-FU (30 μmol/L) (+) or the absence of 5-FU (−). With respect to the cells treated for 8 hours, the expression level of p53 mRNA was analyzed by the Northern blotting. With respect to the cells treated for 12 hours, the expression level of p53 protein was analyzed by the Western immunoblotting. Analysis of protein also was performed with respect to β-actin protein that is an endogenous control (hereinafter, the same applies). […] In FIG. 1C, the first row from the top indicates expression of p53 mRNA, the second row indicates expression of gapdh mRNA, the third row indicates expression of p53 protein, and the fourth row indicates expression of 6-actin protein. Further, in FIG. 1C, “−” indicates the treatment in the absence of 5-FU and “+” indicates the treatment in the presence of 5-FU.

parent cells HCT116 = assay: apoptosis (TUNEL) in parental HCT116 cells with vegf siRNA and 5-FU; settings: parent cells HCT116, siRNA expressed and 80 mmol/L of 5-FU, 60 hours
Description: Apoptotic cells were evaluated by a TUNEL staining method using in situ Cell Death Detection kit (Roche Diagnostic). […] The counting was performed with respect to at least 300 cells in one measurement.
Various types of cells were treated with 5-FU, which is an anticancer agent inducing apoptosis in a p53-dependent manner, and the sensitivity to apoptosis was analyzed. The vegf siRNA#1 vectors expressing siRNA#1, the vegf siRNA #2 vectors expressing siRNA #2, and the control siRNA vectors described above respectively were transfected into HCT 116 (parent cells) and p53-deleted cells HCT116. Then, the cells after 18 hours from the transfection was treated for 60 hours in the presence of […] of 5-FU (+) or in the absence of 5-FU (−). The proportion (%) of apoptosis positive cells in the thus-treated cells was calculated based on “Apoptotic evaluation 2” above (means±SD, n=4).

[1] = HepG2, absence of 5-FU, vs control cells
[2] = HepG2, presence of 5-FU (30 μmol/L), mRNA 8 hours, protein 12 hours

| Substance | basal apoptosis (HepG2 cells) | proportion of apoptosis in response to 5-FU (HepG2 cells) | induction of the expressions of bax mRNA and noxa mRNA by 5-FU (bax mRNA and noxa mRNA) | amount of the expressed vegf IresRNA (vegf IresRNA) | expression amount of vegf mRNA (vegf mRNA) | expression of p53 mRNA and p53 protein (p53; [1]) | expression of p53 mRNA and p53 protein (p53; [2]) | proportion of apoptosis (parent cells HCT116) |
| --- | --- | --- | --- | --- | --- | --- | --- | --- |
| siRNA #1: siRNA against vegf mRNA, SEQ ID NO 3/4, antisense complementary to bases 1062-1082 in SEQ ID NO. 1; expressed from pcDNA6.2-GW/EmGFP-miR vector (sense GCAUUGGACUUGCCUUGCUNN; antisense AGCAAGGCAAGGCUCCAAUGCNN) | not affected | increased markedly | promoted markedly | decreased | decreased markedly | increased | increased markedly | increased markedly |
| siRNA #2: siRNA against vegf mRNA, SEQ ID NO 5/6, antisense complementary to bases 1067-1087 in SEQ ID NO. 1; vector-expressed (sense GGAGCCUUGUUGCUGCUCUNN; antisense AGAGCAGCAAGGCAAGGCUCCNN) | not affected | increased markedly | promoted markedly | decreased markedly | decreased markedly | increased | increased markedly | increased markedly |
